Data published in US20080234254A1, “Inhibitors of Histone Deacetylase” (UNIVERSITY OF LEEDS, priority 2004, published 2008).
Read-outs that look alike come from different tables or passages of the source. Each block holds one compound with its values, some of them ahead of it.

Tests used:
SR = assay: Screening against cancer cell lines: SR (Leukaemia); format: cell-based
Description: (§1) Screening of Benzamide Derivatives Against Cancer Cell Lines Tables 1 and 2 tabulate by way of example the results obtained for compounds (4) and (6).

NCI-H23 = assay: Screening against cancer cell lines: NCI-H23 (Non-Small Cell Lung); format: cell-based
Description: as §1
(§2) 8 non-small cell lung cancer cell lines were screened against both compound (4) and MS275.

NCI-H522 = assay: Screening against cancer cell lines: NCI-H522 (Non-Small Cell Lung); format: cell-based
Description: as §1, §2

HCC-2998 = assay: Screening against cancer cell lines: HCC-2998 (Colon); format: cell-based
Description: as §1
(§3) 6 colon cancer cell lines were screened against both compound (4) and MS275.

LOX IMVI = assay: Screening against cancer cell lines: LOX IMVI (Melanoma); format: cell-based
Description: as §1
(§4) 7 melanoma cancer cell lines were screened against both compound (4) and MS275.

IGROV1 = assay: Screening against cancer cell lines: IGROV1 (Ovarian); format: cell-based; conditions: for GI50: IGROV-1
Description: as §1
(§5) 6 ovarian cancer cell lines were screened against both compound (4) and MS275.

NCI/ADR-RES = assay: Screening against cancer cell lines: NCI/ADR-RES (Breast); format: cell-based
Description: as §1
(§6) 7 breast cancer cell lines were screened against both compound (4) and MS275.

MDA-MB-435 = assay: Screening against cancer cell lines: MDA-MB-435 (Breast); format: cell-based
Description: as §1, §6

cancer cell lines = assay: Screening of benzamide derivatives against cancer cell lines (summary); format: cell-based; conditions: summary of Tables 1 and 2
Description: as §1

HCT-15 = assay: Screening against cancer cell lines: HCT-15 (Colon); format: cell-based; conditions: Homo sapiens; HCT-15, colon cancer; comparison versus MS275; read-out: potency (quantity not named; values match GI50 of Table 1)
Description: as §1, §3

SK-MEL-28 = assay: Screening against cancer cell lines: SK-MEL-28 (Melanoma); format: cell-based; conditions: Homo sapiens; SK-MEL-28, melanoma; comparison versus MS275; read-out: potency (quantity not named; values match GI50 of Table 1)
Description: as §1, §4

UACC-257 = assay: Screening against cancer cell lines: UACC-257 (Melanoma); format: cell-based; conditions: Homo sapiens; UACC-257, melanoma; comparison versus MS275; read-out: potency (quantity not named; values match GI50 of Table 1)
Description: as §1, §4

ACHN = assay: Screening against cancer cell lines: ACHN (Renal); format: cell-based; conditions: Homo sapiens, renal cancer, comparison versus MS275, read-out: potency (quantity not named; values match GI50 of Table 1)
Description: as §1
(§7) 7 renal cancer cell lines were screened against both compound (4) and MS275.

RXF 393 = assay: Screening against cancer cell lines: RXF 393 (Renal); format: cell-based; conditions: Homo sapiens; RXF 393, renal cancer; comparison versus MS275; read-out: potency (quantity not named; values match GI50 of Table 1)
Description: as §1, §7

SN12C = assay: Screening against cancer cell lines: SN12C (Renal); format: cell-based; conditions: Homo sapiens, renal cancer, comparison versus MS275, read-out: potency (quantity not named; values match GI50 of Table 1)
Description: as §1, §7

MDA-MB-231/ATCC = assay: Screening against cancer cell lines: MDA-MB-231/ATCC (Breast); format: cell-based; conditions: Homo sapiens, breast cancer, comparison versus MS275, read-out: potency (quantity not named; values match GI50 of Table 1)
Description: as §1, §6

KM-12 = assay: Comparison test versus MS275: KM-12 (colon cancer); format: cell-based; conditions: Homo sapiens, KM12, read-out: potency (quantity not named; values match GI50 of Table 1)
Description: as §3

786-0 = assay: Comparison test versus MS275: 786-0 (renal cancer); format: cell-based; conditions: Homo sapiens, read-out: potency (quantity not named; values match GI50 of Table 1)
Description: as §7

SK-OV-3 = assay: Comparison test versus MS275: SK-OV-3 (ovarian cancer); format: cell-based; conditions: Homo sapiens, read-out: potency (quantity not named; values match GI50 of Table 1)
Description: as §5

OVCAR-4 = assay: Comparison test versus MS275: OVCAR-4 (ovarian cancer); format: cell-based; conditions: Homo sapiens, read-out: potency (quantity not named; values match GI50 of Table 1)
Description: as §5

rat fibroblasts = conditions: cited from earlier work
tumours = conditions: mice; cited from earlier work

melting point: 163 to 164 °C
SMILES: C=C(CN1CCOCC1)c1ccc(C(=O)Nc2ccccc2N)cc1 [(1), N-(2-Amino-phenyl)-4-(1-morpholin-4-ylmethyl-vinyl)-benzamide]

melting point: 110 to 111 °C
SMILES: C=C(CN(C)Cc1ccccc1)c1ccc(C(=O)Nc2ccccc2N)cc1 [(2), N-(2-amino-phenyl)-4-(1-{[benzyl(methyl)amino]methyl}vinyl)benzamide]

SMILES: C=C(CN1CCc2c([nH]c3ccccc23)C1)c1ccc(C(=O)Nc2ccccc2N)cc1 [(6), N-(2-aminophenyl)-4-[1-(1,3,4,9-tetrahydro-2H-β-carbolin-2-ylmethyl)vinyl]benzamide]
GI50 (SR; Homo sapiens): 622 nM
CC50 (SR; Homo sapiens, read-out: LC50): > 50 µM
TGI (SR; Leukaemia, Table 2): — (‘—’ indicates a concentration exceeding 50 μM.)
GI50 (NCI-H23; Homo sapiens, NCI-H23): 1040 nM
CC50 (NCI-H23; Homo sapiens, NCI-H23, read-out: LC50): 13.4 µM
TGI (NCI-H23; NCI-H23, Non-Small Cell Lung, Table 2): 3.2 µM
GI50 (NCI-H522; Homo sapiens, NCI-H522): 150 nM
CC50 (NCI-H522; Homo sapiens, NCI-H522, read-out: LC50): > 50 µM
TGI (NCI-H522; NCI-H522, Non-Small Cell Lung, Table 2): 3.0 µM
TGI (HCC-2998; HCC-2998, Colon, Table 2): 1.9 µM
GI50 (HCC-2998; Homo sapiens, HCC 2998): 731 nM
CC50 (HCC-2998; Homo sapiens, HCC 2998, read-out: LC50): 5 µM
GI50 (LOX IMVI; Homo sapiens): 763 nM
CC50 (LOX IMVI; Homo sapiens, read-out: LC50): > 50 µM
TGI (LOX IMVI; Melanoma, Table 2): 2.4 µM
GI50 (IGROV1; Homo sapiens): 32 nM
CC50 (IGROV1; Homo sapiens, IGROV-1, read-out: LC50): > 50 µM
TGI (IGROV1; IGROV1, Ovarian, Table 2): 8.5 µM
TGI (NCI/ADR-RES; Breast, Table 2): 3.9 µM
GI50 (NCI/ADR-RES; Homo sapiens): 973 nM
CC50 (NCI/ADR-RES; Homo sapiens, read-out: LC50): 18.3 µM
GI50 (MDA-MB-435; Homo sapiens, MDA-MB-435): 0.948 µM
CC50 (MDA-MB-435; Homo sapiens, MDA-MB-435, read-out: LC50): 5.6 µM
TGI (MDA-MB-435; MDA-MB-435, Breast, Table 2): 2.2 µM
activity against cancer cell lines (in words) (cancer cell lines): nanomolar activity

melting point: 89 to 91 °C
SMILES: C=C(CNCc1ccccc1)c1ccc(C(=O)Nc2ccccc2N)cc1 [(7), N-(2-aminophenyl)-4-{1-[(benzylamino)methyl]vinyl}benzamide]

melting point: 115 to 116 °C
SMILES: C=C(CN1CCN(c2ccccc2OC)CC1)c1ccc(C(=O)Nc2ccccc2N)cc1 [(9), N-(2-aminophenyl)-4-{1-[4-(2-methoxy-phenyl)-piperazin-1-ylmethyl]vinyl}-benzamide]

melting point: 129 °C
SMILES: C=C(CN1CCOCC1)c1ccc(CC(=O)Nc2ccccc2N)cc1 [(11), N-(2-Amino-phenyl)-2-[4-(1-morpholin-4-ylmethyl-vinyl)-phenyl]-acetamide]

melting point: 79 to 81 °C
SMILES: C=C(CN1CCOCC1)c1ccc(CCCC(=O)Nc2ccccc2N)cc1 [(13), N-(2-Amino-phenyl)-4-[4-(1-morpholin-4-ylmethyl-vinyl)-phenyl]-butanamide]

melting point: 120 °C
SMILES: CC(C)=C(CN1CCc2ccccc2C1)c1ccc(C(=O)Nc2ccccc2N)cc1 [(14), N-(2-Amino-phenyl)-4-[1-(3,4-dihydro-1H-isoquinolin-2-ylmethyl)-2-methyl-propenyl]-benzamide]

GI50 (NCI-H23; Homo sapiens, NCI-H23, non-small cell lung cancer, comparison versus MS275, read-out: potency (quantity not named; values match GI50 of Table 1)): 1030 nM
GI50 (NCI-H522; Homo sapiens, NCI-H522, non-small cell lung cancer, comparison versus MS275, read-out: potency (quantity not named; values match GI50 of Table 1)): 1000 nM
GI50 (HCC-2998; Homo sapiens, HCC-2998, colon cancer, comparison versus MS275, read-out: potency (quantity not named; values match GI50 of Table 1)): 1260 nM
GI50 (HCT-15): 3.98 µM
GI50 (LOX IMVI; Homo sapiens, melanoma, comparison versus MS275, read-out: potency (quantity not named; values match GI50 of Table 1)): 790 nM
GI50 (SK-MEL-28): 2000 nM
GI50 (UACC-257): 1540 nM
GI50 (IGROV1; Homo sapiens, IGROV1, ovarian cancer, comparison versus MS275, read-out: potency (quantity not named; values match GI50 of Table 1)): 2510 nM
GI50 (ACHN): 2000 nM
GI50 (RXF 393): 2000 nM
GI50 (SN12C): 5.01 µM
GI50 (NCI/ADR-RES; Homo sapiens, breast cancer, comparison versus MS275, read-out: potency (quantity not named; values match GI50 of Table 1)): 1260 nM
GI50 (MDA-MB-231/ATCC): 2000 nM
GI50 (MDA-MB-435; Homo sapiens, MDA-MB-435, breast cancer, comparison versus MS275, read-out: potency (quantity not named; values match GI50 of Table 1)): 10 µM
GI50 (KM-12): 25 µM
GI50 (786-0): 3.16 µM
GI50 (SK-OV-3): 5.01 µM
GI50 (OVCAR-4): 20 µM
SMILES: Nc1ccccc1NC(=O)c1ccc(CNC(=O)OCc2cccnc2)cc1 [MS275, reference compound]

SMILES: CC(/C=C/C(=O)NO)=C\[C@@H](C)C(=O)c1ccc(N(C)C)cc1 [Trichostatin A]
effect on the cell cycle (rat fibroblasts): arrest of rat fibroblasts at the G1 and G2 phases of the cell cycle
formation of tumours (tumours): prevent the formation of tumours in mice
